Assays:
Mas receptor = conditions: Santos et al., PNAS 2003; cited from earlier work
[1] = tested on: aorta rings of AT2−/− mice; test: Vasorelaxation in precontracted aorta rings of AT2-/- mice; type: cell-based; conditions: precontracted with fenilefrine 0.1 μM
Description: This example describes the vasodilating effect of Ala^1-Ang-(1-7) and Ang-(1-7)—which is independent of the AT2 receptor—on the aorta of mice with genetic deletion of AT2 (AT2−/−) receptor.
The original rings of the descending thoracic aorta (2 mm), free from adipose tissue and connective tissue, were incubated in gasified solution (95% O2 and 5% CO2) of Krebs-Henseleit (mmol/L): NaCl 110.8, KCl 5.9, NaHCO3 25.0, MgSO4 1.07, CaCl2 2.49, NaH2PO4 2.33 and glucose 11.51, under a temperature of 37° C. and a 0.5 g tension, being equilibrated for 1 hour. The functional presence of endothelium was tested by its relaxing capacity produced by acetylcholine [ACh] (10 μM) on vessels precontracted with fenilefrine (0.3 μM). Only the vessels showing relaxation above 70% of extended contraction produced by fenilefrine were taken into account. Data on mechanical activity were isometrically obtained by using an amplified strength transducer (Model TMB-4; World Precision Instruments, Inc. Sarasota, Fla., USA) and converted to digital signal (AD16JR; World Precision Instruments, Inc.). […]
The aorta rings of AT2−/− mice were precontracted (approx. 1.0 g of tension) with a felinefrine submaximum concentration (0.1 μM). […] The vasodilating effects of Ala^1-Ang-(1-7) and Ang-(1-7) were expressed as a relaxation percentage relative to the maximum contraction induced by fenilefrine. […]

[2] = tested on: aorta rings in absence of functional endothelium; test: Vasorelaxation in aorta rings without functional endothelium; type: cell-based, mice (C57/BI-6 and FVB/N); conditions: vessels not presenting functional endothelium (Mas+/+ and Mas−/−, C57/BI-6 and FVB/N)
Description: This example describes the endothelium-dependence of the Ala^1-Ang-(1-7) vasorelaxing activity.
The original rings of the descending thoracic aorta (2 mm), free from adipose tissue and connective tissue, were incubated in gasified solution (95% O2 and 5% CO2) of Krebs-Henseleit (mmol/L): NaCl 110.8, KCl 5.9, NaHCO3 25.0, MgSO4 1.07, CaCl2 2.49, NaH2PO4 2.33 and glucose 11.51, under a temperature of 37° C. and a 0.5 g tension, being equilibrated for 1 hour. The functional presence of endothelium was tested by its relaxing capacity produced by acetylcholine [ACh] (10 μM) on vessels precontracted with fenilefrine (0.3 μM). In accordance with experimental protocols for its absence, the endothelium was removed with a slight friction on the vessel internal surface. Only the vessels showing relaxation by acetylcholine above 70% of extended contraction produced by fenilefrine were taken into account. […]
The Ala^1-Ang-(1-7) vasorelaxing activity was measured in vessels (Mas+/+ and Mas−/−, of lineages C57/BI-6 and FVB/N) in the presence or absence of precontracted functional endothelium (with approximately a 1.0 g tension) and a submaximum concentration of fenilefrine (0.1 μM). […] The vasodilating effects of Ala^1-Ang-(1-7) and Ang-(1-7) were expressed as a relaxation percentage relative to the maximum contraction induced by fenilefrine. […]

Substance | Kd (Mas receptor) [nM] | vasodilating effect [1] | vasodilating effect [2]
Asp^1-Arg^2-Val^3-Tyr^4-Ile^5-His^6-Pro^7 [Ang-(1-7)] | 0.33 | preserved | –
Ala^1-Arg^2-Val^3-Tyr^4-Ile^5-His^6-Pro^7 [Ala^1-Ang-(1-7)] | – | preserved | abolished

Source: US9974825B2, “Peptides Des-[Asp1]-[Ala1], angiotensin-(1-7) agonist and pharmaceutical compositions for the treatment of diseases” (UNIVERSIDADE FEDERAL DE MINAS GERAIS, priority 2008, dated 2018)
